According to US6825172B2, “3-descladinosyl-6-O-carbamoyl and 6-O-carbonoyl macrolide antibacterial agents” (Janssen Pharmaceutica, NV, priority 2002, dated 2004):
≈ marks a conversion by molar mass, not a printed value. Read-outs that look alike come from different tables or passages of the source.

Legend:
Assay in all cases: MIC, microdilution broth method (NCCLS)
Format in all cases: cell-based
E. coli OC2605 = settings: Escherichia coli
In short: (§1)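 NCCLS M7-A4 broth microdilution: two-fold drug dilutions in cation-adjusted Mueller-Hinton broth, inoculum approximately 5×10^4 CFU/well. Trays incubated at 35 °C for 16-20 hours. MIC read by comparing growth to compound-free growth controls.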

E. faecalis ATCC29212 = settings: Enterococcus faecalis, read-out: MIC Values, C: E. faecalis ATCC29212
In short: as §1

H. influenzae ATCC49247 = settings: Haemophilus influenzae, read-out: MIC Values, E: H. influenzae ATCC49247
In short: as §1

S. aureus ATCC29213 = settings: Staphylococcus aureus, read-out: MIC Values, B: S. aureus ATCC29213
In short: as §1

S. pneumoniae ATCC49619 = settings: Streptococcus pneumoniae, read-out: MIC Values, D: S. pneumoniae ATCC49619
In short: as §1

[1] = Table 1, 6-Carbamoyl-3-Acyl Macrolide Derivatives, read-out: MIC Values, A: E. coli OC2605
[2] = Table 1, 6-Carbamoyl-3-Acyl Macrolide Derivatives
[3] = Table 2, 3,6-Dicarbamoyl Macrolide Derivatives

SMILES | MIC (E. coli OC2605; [1]) [mg/L] | MIC (E. faecalis ATCC29212; [2]) [mg/L] | MIC (H. influenzae ATCC49247; [2]) [mg/L] | MIC (S. aureus ATCC29213; [2]) [mg/L] | MIC (S. pneumoniae ATCC49619; [2]) [mg/L] | MIC (E. coli OC2605; Table 2, 3,6-Dicarbamoyl Macrolide Derivatives, read-out: MIC Values, A: E. coil OC2605) [mg/L] | MIC (E. faecalis ATCC29212; [3]) [mg/L] | MIC (H. influenzae ATCC49247; [3]) [mg/L] | MIC (S. aureus ATCC29213; [3]) [mg/L] | MIC (S. pneumoniae ATCC49619; [3]) [mg/L]
CC[C@H]1OC(=O)[C@H](C)[C@@H](OC(=O)N(C)C(C)C)[C@H](C)[C@@H](O[C@@H]2O[C@H](C)C[C@H](N(C)C)[C@H]2O)[C@](C)(OC(=O)NC/C=C/c2ccc(-c3ncccn3)cc2)C[C@@H](C)C(=O)[C@H](C)[C@H]2NC(=O)O[C@@]21C [Compound 57] |  |  |  |  |  | 16 (≈ 17.1 µM) | 0.5 (≈ 0.534 µM) | 4 (≈ 4.27 µM) | 0.5 (≈ 0.534 µM) | 0.06 (≈ 0.064 µM)
CC[C@H]1OC(=O)[C@H](C)[C@@H](OC(=O)Cc2cccnc2)[C@H](C)[C@@H](O[C@@H]2O[C@H](C)C[C@H](N(C)C)[C@H]2O)[C@](C)(OC(=O)NC/C=C/c2cnc3ccccc3c2)C[C@@H](C)C(=O)[C@H](C)[C@H]2NC(=O)O[C@@]21C [Compound 30] | 16 (≈ 17.2 µM) | 0.5 (≈ 0.538 µM) | 4 (≈ 4.3 µM) | 1 (≈ 1.08 µM) | 0.03 (≈ 0.0323 µM) |  |  |  |  | 
CC[C@H]1OC(=O)[C@H](C)[C@@H](OC(=O)CC2CC2)[C@H](C)[C@@H](O[C@@H]2O[C@H](C)C[C@H](N(C)C)[C@H]2O)[C@](C)(OC(=O)NC/C=C/c2ccc(-c3ncccn3)cc2)C[C@@H](C)C(=O)[C@H](C)[C@H]2NC(=O)O[C@@]21C [Compound 13] | > 16 | 0.5 (≈ 0.543 µM) | 8 (≈ 8.69 µM) | 0.5 (≈ 0.543 µM) | 0.06 (≈ 0.0652 µM) |  |  |  |  | 
CC[C@H]1OC(=O)[C@H](C)[C@@H](OC(=O)C(C)C)[C@H](C)[C@@H](O[C@@H]2O[C@H](C)C[C@H](N(C)C)[C@H]2O)[C@](C)(OC(=O)NC/C=C/c2ccnc3ccccc23)C[C@@H](C)C(=O)[C@H](C)[C@H]2NC(=O)O[C@@]21C [Compound 33] | 16 (≈ 18.2 µM) | 0.25 (≈ 0.284 µM) | 2 (≈ 2.27 µM) | 0.5 (≈ 0.567 µM) | 0.03 (≈ 0.034 µM) |  |  |  |  | 
CC[C@H]1OC(=O)[C@H](C)[C@@H](OC(=O)C(C)C)[C@H](C)[C@@H](O[C@@H]2O[C@H](C)C[C@H](N(C)C)[C@H]2O)[C@](C)(OC(=O)NC/C=C/c2ccc(-c3ncccn3)cc2)C[C@@H](C)C(=O)[C@H](C)[C@H]2NC(=O)O[C@@]21C [Compound 1, Propanoic acid, 2-methyl-, (3aS,4R,7R,8S,9S,10R, 11R,13R,15R,15aR)-4-ethyltetradecahydro-3a,7,9,11,13,15-hexamethyl-2,6,14-trioxo-11-[[[[(2E)-3-[4-(2-pyrimidinyl)phenyl]-2-propenyl]amino]carbonyl]oxy]-10-[[3,4,6-trideoxy-3-(dimethylamino)-β-D-xylo-hexopyranosyl]oxy]-2H-oxacyclotetradecino[4,3-d]oxazol-8-yl ester] | 16 (≈ 17.6 µM) | 0.25 (≈ 0.275 µM) | 1 (≈ 1.1 µM) | 0.5 (≈ 0.551 µM) | 0.06 (≈ 0.0661 µM) |  |  |  |  | 
CC[C@H]1OC(=O)[C@H](C)[C@@H](OC(=O)C(C)C)[C@H](C)[C@@H](O[C@@H]2O[C@H](C)C[C@H](N(C)C)[C@H]2O)[C@](C)(OC(=O)NC/C=C/C=C/c2ccccn2)C[C@@H](C)C(=O)[C@H](C)[C@H]2NC(=O)O[C@@]21C [Compound 26] | 16 (≈ 18.7 µM) | 0.25 (≈ 0.292 µM) | 2 (≈ 2.33 µM) | 1 (≈ 1.17 µM) | 0.06 (≈ 0.07 µM) |  |  |  |  | 

The remaining compounds from weak to strong by MIC (E. coli OC2605; [1]), led by results:

MIC (E. coli OC2605; [1]) [mg/L] | MIC (E. faecalis ATCC29212; [2]) [mg/L] | MIC (H. influenzae ATCC49247; [2]) [mg/L] | MIC (S. aureus ATCC29213; [2]) [mg/L] | MIC (S. pneumoniae ATCC49619; [2]) [mg/L] | MIC (E. coli OC2605; Table 2, 3,6-Dicarbamoyl Macrolide Derivatives, read-out: MIC Values, A: E. coil OC2605) [mg/L] | MIC (E. faecalis ATCC29212; [3]) [mg/L] | MIC (H. influenzae ATCC49247; [3]) [mg/L] | MIC (S. aureus ATCC29213; [3]) [mg/L] | MIC (S. pneumoniae ATCC49619; [3]) [mg/L] | SMILES
8 (≈ 8.34 µM) | 0.25 (≈ 0.261 µM) | 1 (≈ 1.04 µM) | 0.5 (≈ 0.521 µM) | < 0.015 |  |  |  |  |  | CC[C@H]1OC(=O)[C@H](C)[C@@H](OC(=O)Cc2cccnc2)[C@H](C)[C@@H](O[C@@H]2O[C@H](C)C[C@H](N(C)C)[C@H]2O)[C@](C)(OC(=O)NC/C=C/c2ccc(Br)nc2)C[C@@H](C)C(=O)[C@H](C)[C@H]2NC(=O)O[C@@]21C [Compound 28]
8 (≈ 9.09 µM) | 0.25 (≈ 0.284 µM) | 1 (≈ 1.14 µM) | 0.5 (≈ 0.568 µM) | 0.03 (≈ 0.0341 µM) |  |  |  |  |  | CC[C@H]1OC(=O)[C@H](C)[C@@H](OC(=O)Cc2ccccn2)[C@H](C)[C@@H](O[C@@H]2O[C@H](C)C[C@H](N(C)C)[C@H]2O)[C@](C)(OC(=O)NC/C=C/c2cccnc2)C[C@@H](C)C(=O)[C@H](C)[C@H]2NC(=O)O[C@@]21C [Compound 20]
8 (≈ 9.08 µM) | 0.25 (≈ 0.284 µM) | 4 (≈ 4.54 µM) | 0.5 (≈ 0.567 µM) | 0.03 (≈ 0.034 µM) |  |  |  |  |  | CC[C@H]1OC(=O)[C@H](C)[C@@H](OC(=O)C(C)C)[C@H](C)[C@@H](O[C@@H]2O[C@H](C)C[C@H](N(C)C)[C@H]2O)[C@](C)(OC(=O)NC/C=C/c2cnc3ccccc3c2)C[C@@H](C)C(=O)[C@H](C)[C@H]2NC(=O)O[C@@]21C [Compound 31, Propanoic acid, 2-methyl-, (3aS,4R,7R,8S,9S,10R,11R,13R,15R,15aR)-4-ethyltetradecahydro-3a,7,9,11,13,15-hexamethyl-2,6,14-trioxo-11-[[[[(2E)-3-(3-quinolinyl)-2-propenyl]amino]carbonyl]oxy]-10-[[3,4,6-trideoxy-3-(dimethylamino)-β-D-xylo-hexopyranosyl]oxy]-2H-oxacyclotetradecino[4,3-d]oxazol-8-yl ester]
